Laboratory results as given in PubChem BioAssay (NCI).
Several values for one entry are separate records, joined by “and”; a condition that tells them apart may be missing. Equal entries are not always repeated.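 In this assay, cells in 96-well plates receive the compound at five concentrations for 48 hours. Endpoints are linearly interpolated between the surrounding concentrations. The concentration for 50% growth inhibition is given as GI50. The concentration for full growth arrest is given as TGI.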

Assays:
Assay in all cases: NCI tumour cell line growth inhibition, 48 h
UO-31 renal = test system: UO-31 renal
PC-3 prostate = test system: PC-3 prostate
A498 renal = test system: A498 renal
LOX IMVI melanoma = test system: LOX IMVI melanoma
MDA-MB-231 breast = test system: MDA-MB-231 breast
SF-295 CNS = test system: SF-295 CNS
SR leukemia = test system: SR leukemia
SN12C renal = test system: SN12C renal
CCRF-CEM leukemia = test system: CCRF-CEM leukemia
HOP-92 NSCLC = test system: HOP-92 NSCLC

Work on `CC(C)(C[C@H]1CN(S(=O)(=O)c2cccc(C(F)(F)F)c2)c2cc(-c3cc(F)cc(OC(F)F)c3)ccc2O1)C(=O)O` yielded a GI50 (UO-31 renal) of 10.8 µM, a TGI (UO-31 renal) of 23.4 µM and a GI50 (PC-3 prostate) of 5.04 µM. The TGI (PC-3 prostate) was 18.9 µM, the GI50 (A498 renal) was 4.5 µM and the TGI (A498 renal) was 16.9 µM. The GI50 (LOX IMVI melanoma) was 6.54 µM, the TGI (LOX IMVI melanoma) was 22.5 µM and the GI50 (MDA-MB-231 breast) was 13.3 µM. For the same compound, the TGI (MDA-MB-231 breast) was 34 µM, the GI50 (SF-295 CNS) was 4.12 µM and the TGI (SF-295 CNS) was 18.5 µM. The GI50 (SR leukemia) was 3.29 µM, the TGI (SR leukemia) was 23.8 µM and the GI50 (SN12C renal) was 11.3 µM. For the same compound, the TGI (SN12C renal) was 28 µM, the GI50 (CCRF-CEM leukemia) was 4.72 µM and the TGI (CCRF-CEM leukemia) was 24.7 µM. It also gave a GI50 (HOP-92 NSCLC) of 3.1 µM and a TGI (HOP-92 NSCLC) of 16.8 µM.

Compound `Br[C](Br)(Br)[Hg][c]1ccccc1` has a GI50 (UO-31 renal) of 20.2 µM, a TGI (UO-31 renal) of 34.5 µM and a GI50 (PC-3 prostate) of 14.7 µM. For the same compound, the TGI (PC-3 prostate) was 28 µM, the GI50 (A498 renal) was 16.2 µM and the TGI (A498 renal) was 30 µM. For the same compound, the GI50 (LOX IMVI melanoma) was 9.71 µM, the TGI (LOX IMVI melanoma) was 23.2 µM and the GI50 (MDA-MB-231 breast) was 18.1 µM. It also gave a TGI (MDA-MB-231 breast) of 41.3 µM, a GI50 (SF-295 CNS) of 15.6 µM and a TGI (SF-295 CNS) of 30 µM. The GI50 (SR leukemia) was 3.32 µM, the TGI (SR leukemia) was 20.4 µM and the GI50 (SN12C renal) was 16.2 µM. The TGI (SN12C renal) was 29.7 µM, the GI50 (CCRF-CEM leukemia) was 1.49 µM and the TGI (CCRF-CEM leukemia) was 9.13 µM. It also gave a GI50 (HOP-92 NSCLC) of 12.5 µM and a TGI (HOP-92 NSCLC) of 25.3 µM.

`CC1=C(O)C(=O)C=C2C1=CC=C1[C@@]2(C)CC[C@@]2(C)[C@@H]3C[C@](C)(C(=O)O)CC[C@]3(C)CC[C@]12C` gave a TGI (UO-31 renal) of 0.151 µM, a TGI (PC-3 prostate) of 0.185 µM and a TGI (A498 renal) of 0.142 µM. The TGI (LOX IMVI melanoma) was 0.0414 µM, the TGI (MDA-MB-231 breast) was 0.0664 µM and the TGI (SF-295 CNS) was 0.54 µM. For the same compound, the TGI (SR leukemia) was 0.0336 µM, the TGI (SN12C renal) was 0.142 µM and the TGI (CCRF-CEM leukemia) was 0.15 µM. For the same compound, the TGI (HOP-92 NSCLC) was 0.0777 µM.

With `O=S(=O)(Nc1cc(Sc2cccc3cccnc23)c(O)c2ccccc12)c1ccccc1` the GI50 (UO-31 renal) was 0.734 µM, the TGI (UO-31 renal) was 4.76 µM and the GI50 (PC-3 prostate) was 0.467 µM. It also gave a TGI (PC-3 prostate) of 13.1 µM, a GI50 (A498 renal) of 4.01 µM and a TGI (A498 renal) of 30.6 µM. The GI50 (LOX IMVI melanoma) was 0.522 µM, the TGI (LOX IMVI melanoma) was 10.1 µM and the GI50 (MDA-MB-231 breast) was 0.47 µM. The TGI (MDA-MB-231 breast) was 6.01 µM, the GI50 (SF-295 CNS) was 2.84 µM and the TGI (SF-295 CNS) was 15 µM. The GI50 (SR leukemia) was 0.426 µM, the TGI (SR leukemia) was 17.2 µM and the GI50 (SN12C renal) was 0.798 µM. It also gave a TGI (SN12C renal) of 3.6 µM, a GI50 (CCRF-CEM leukemia) of 0.426 µM and a TGI (CCRF-CEM leukemia) of 16 µM. For the same compound, the GI50 (HOP-92 NSCLC) was 2.61 µM and the TGI (HOP-92 NSCLC) was 7.38 µM.

Work on `CC/C=C\C[C@H]1C/C=C2/C(=O)C=C[C@@H]2C/C=C\CCCC(=O)O1` yielded a GI50 (UO-31 renal) of 1.13 µM, a TGI (UO-31 renal) of 2.48 µM and a GI50 (PC-3 prostate) of 1.31 µM. For the same compound, the TGI (PC-3 prostate) was 3.73 µM, the GI50 (A498 renal) was 1.82 µM and the TGI (A498 renal) was 3.35 µM. It also gave a GI50 (LOX IMVI melanoma) of 0.273 µM, a TGI (LOX IMVI melanoma) of 0.865 µM and a GI50 (MDA-MB-231 breast) of 2.76 µM. For the same compound, the TGI (MDA-MB-231 breast) was 13.2 µM, the GI50 (SF-295 CNS) was 2.17 µM and the TGI (SF-295 CNS) was 5.44 µM. The GI50 (SR leukemia) was 0.288 µM, the GI50 (SN12C renal) was 0.986 µM and the TGI (SN12C renal) was 4.34 µM. The GI50 (CCRF-CEM leukemia) was 0.339 µM, the TGI (CCRF-CEM leukemia) was 5.04 µM and the GI50 (HOP-92 NSCLC) was 2.34 µM. It also gave a TGI (HOP-92 NSCLC) of 5.93 µM.

Work on `Cc1ccc2[nH]c(O)c(N=Nc3ccc(S(N)(=O)=O)cc3)c2c1` yielded a GI50 (UO-31 renal) of 12.7 µM, a TGI (UO-31 renal) greater than 25 µM and a GI50 (PC-3 prostate) of 11.9 µM. It also gave a TGI (PC-3 prostate) greater than 25 µM, a GI50 (A498 renal) greater than 25 µM and a TGI (A498 renal) greater than 25 µM. It also gave a GI50 (LOX IMVI melanoma) of 13.1 µM, a TGI (LOX IMVI melanoma) greater than 25 µM and a GI50 (MDA-MB-231 breast) greater than 25 µM. The TGI (MDA-MB-231 breast) was greater than 25 µM, the GI50 (SF-295 CNS) was greater than 14.9 µM and the TGI (SF-295 CNS) was greater than 25 µM. For the same compound, the GI50 (SR leukemia) was 7.23 µM, the TGI (SR leukemia) was greater than 25 µM and the GI50 (SN12C renal) was 15.4 µM. The TGI (SN12C renal) was greater than 25 µM, the GI50 (CCRF-CEM leukemia) was 15.6 µM and the TGI (CCRF-CEM leukemia) was greater than 25 µM. For the same compound, the GI50 (HOP-92 NSCLC) was greater than 25 µM and the TGI (HOP-92 NSCLC) was greater than 25 µM.

`Nc1nc(F)nc2c1ncn2C1OC(CO)C(O)C1O` (configuration not stated) showed a GI50 (UO-31 renal) of 5.1 µM, a TGI (UO-31 renal) greater than 100 µM and a GI50 (PC-3 prostate) of 41.6 µM. It also gave a TGI (PC-3 prostate) greater than 100 µM, a GI50 (A498 renal) greater than 100 µM and a TGI (A498 renal) greater than 100 µM. The GI50 (LOX IMVI melanoma) was 19.9 µM, the TGI (LOX IMVI melanoma) was greater than 100 µM and the TGI (MDA-MB-231 breast) was greater than 100 µM. The TGI (SF-295 CNS) was greater than 100 µM, the GI50 (SR leukemia) was greater than 68.9 µM and the TGI (SR leukemia) was greater than 100 µM. The GI50 (SN12C renal) was 5.55 µM, the TGI (SN12C renal) was > 72.2 µM and 45.1 µM and the GI50 (CCRF-CEM leukemia) was 1.21 µM. For the same compound, the TGI (CCRF-CEM leukemia) was greater than 77 µM, the GI50 (HOP-92 NSCLC) was 14 µM and the TGI (HOP-92 NSCLC) was > 100 µM and 97.6 µM.
